Columns and labels:
Thy-1 mRNA = assay: Studies on rat retina: NMDA-induced loss of Thy-1 mRNA (neuroprotection); assay type: in vivo, Wistar rats; conditions: Thy-1 mRNA levels (relative to rhodopsin), PEG value taken as 100; topical 5 μl of 2% in 50% PEG bilaterally twice a day, 2 days before and 7 days after intravitreal NMDA
Protocol: The method described by Osborne N. N. et al. (2002) previously reported was used. Briefly, two groups of 16 Wistar rats (200-250 g) received either 5 μl doses of topical test compound (2% in 50% polyethylene glycol-PEG) or 5 μl of vehicle bilaterally twice a day for 2 days. On the third day N-methyl-D-aspartate (NMDA) (5 μl in sterile water) was injected intra-vitreally into a single eye of each animal. The other eye was injected with sterile water. The animals were treated then with test compound or vehicle for 7 days. The Thy-1 antigen is associated with ganglion cells and intraocular injections of NMDA cause a loss of Thy-1 mRNA. The rats were then killed and the retinas removed for mRNA analysis for Thy-1 antigen. Results are expressed as % value to the Thy-1 mRNA levels (relative to rhodopsin) of the treated groups, taking PEG value as 100.

[1] = tested on: IOP (Intraocular Pressure); assay: Studies of IOP (intraocular pressure) on rabbit; assay type: in vivo, New Zealand albino rabbits; conditions: IOP mmHg as % of PEG value (100); topical application of 2% test compound, measured 60 minutes after
Protocol: The method by Osborne N. N. et al. (2002) previously reported was used. Briefly, two groups of adult male New Zealand albino rabbits weighing 3-3.5 kg were used in the experiments. IOP was measured using a properly calibrated tonometer immediately after topical application of 1 drop of 0.4% benoxinate hydrochloride. The animals received a topical application of 2% of test compound or PEG and measures taken 60 minutes after. Results are expressed as % value to the IOP mmHg values of the treatment groups, taking PEG value as 100.

O=C(CCCC=CC[C@@H]1[C@@H](CC[C@@H](O)CCc2ccccc2)[C@H](O)C[C@@H]1O)Oc1ccc(-c2cc(=S)ss2)cc1 (stereo in doubt) [Compound Example 2, (5Z)-7-[(1R,2R,3R,5S)-3,5-dihydroxy-2-[(3R)-3-hydroxy-5-phenylpentyl]cyclopentyl]-5-heptenoic acid 4-(3H-1,2-dithiole-3-thione-5-yl)-phenyl ester]
NMDA effects (%) (Thy-1 mRNA): 52%
IOP values (%) [1]: 85%
